Source: patent publication US6387933B1, “Insecticidal compositions and insecticidal methods” (Sumitomo Chemical Company, Limited, priority 2001, dated 2002)

Columns and labels:
[1] = test system: silverleaf whiteflies; assay: Test Example 1: spray on cabbage seedlings infested with silverleaf whiteflies; type: in vivo; details: 50 ppm; adults and larvae on cabbage seedling, 8 days after spray
Method: (§1) Cabbage seedlings planted in 3 ounces plastic cup were placed in a net cage containing many living silverleaf whiteflies for 24 hours, so that many silverleaf whiteflies became parasitic on the cabbage seedlings. A designated amount of each of acetamiprid on the market (commercial name, Mospilan water-soluble powder: produced by Nippon Soda), pyriproxyfen on the market (commercial name, Lano emulsifiable concentrate: produced by Sumitomo Chemical) and a mixture of acetamiprid and pyriproxyfen on the market were diluted with water, and then sprayed over the cabbage seedlings with spray gun. The number of silverleaf whiteflies (i.e., the total number of adults and larvae) surviving on the cabbage seedlings was examined just before and after 8 days from the treatment.

[2] = test system: silverleaf whiteflies; assay: Test Example 2: spray on cabbage seedlings infested with silverleaf whiteflies; type: in vivo; details: 8 days after spray
Method: as §1

| Compound | Number of surviving insects/pot after 8 days [1] | Number of surviving insects/pot after 8 days ([2]; 5 ppm) | Number of surviving insects/pot after 8 days ([2]; 10 ppm) | Number of surviving insects/pot after 8 days ([2]; 50 ppm) |
| --- | --- | --- | --- | --- |
| C/C(=N\C#N)N(C)Cc1ccc(Cl)nc1 [acetamiprid, (E)-N^1-[(6-chloro-3-pyridyl)methyl]-N^2-cyano-N^1-methylacetamidine] | 69 insects/pot | 41 insects/pot | 16 insects/pot | 24 insects/pot |
| CC(COc1ccc(Oc2ccccc2)cc1)Oc1ccccn1 (centres unmarked) [pyriproxyfen, 4-phenoxyphenyl 2-(2-pyridyloxy)propyl ether] | 21 insects/pot | 41 insects/pot | 114 insects/pot | 69 insects/pot |
